Results: patent US11793849B2, “Method of Chinese herbal medicine extract used for treating multiple diseases caused by drug resistant bacteria infection” (priority 2016, dated 2023)
≈ marks a conversion by molar mass, not a printed value. Where two headings read alike, the source gives them in different places.

Tested on: MDRPA
Experiment: MIC determination, microdilution broth method;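 also: broth microdilution per NCCLS recommendations, testing Pithecellobium clypearia water or ethanol extracts against multidrug-resistant Pseudomonas aeruginosa, with MIC50 and MIC90 derived statistically from individual MICs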
[1] = 20 MDRPAs, EA = 60% ethanol extract
[2] = 20 MDRPAs, EA = 95% ethanol extract
[3] = MDRPAs P1-P20, single use, EA=P. clypearia 10% ethanol extract
[4] = MDRPAs P1-P20, single use, EA=P. clypearia water extract
[5] = Pseudomonas aeruginosa, read-out: MIC (single use), strain P1, EA=P. clypearia 10% ethanol extract
[6] = Pseudomonas aeruginosa, read-out: MIC (single use), strain P1, EA=P. clypearia water extract
[7] = Pseudomonas aeruginosa, read-out: MIC (single use), strain P2, EA=P. clypearia 10% ethanol extract
[8] = Pseudomonas aeruginosa, read-out: MIC (single use), strain P2, EA=P. clypearia water extract
[9] = Pseudomonas aeruginosa, read-out: MIC (single use), strain P3, EA=P. clypearia 10% ethanol extract
[10] = Pseudomonas aeruginosa, read-out: MIC (single use), strain P3, EA=P. clypearia water extract
[11] = Pseudomonas aeruginosa, read-out: MIC (single use), strain P4, EA=P. clypearia 10% ethanol extract
[12] = Pseudomonas aeruginosa, read-out: MIC (single use), strain P4, EA=P. clypearia water extract
[13] = Pseudomonas aeruginosa, read-out: MIC (single use), strain P5, EA=P. clypearia 10% ethanol extract
[14] = Pseudomonas aeruginosa, read-out: MIC (single use), strain P5, EA=P. clypearia water extract
[15] = Pseudomonas aeruginosa, read-out: MIC (single use), strain P6, EA=P. clypearia 10% ethanol extract
[16] = Pseudomonas aeruginosa, read-out: MIC (single use), strain P6, EA=P. clypearia water extract
[17] = Pseudomonas aeruginosa, read-out: MIC (single use), strain P7, EA=P. clypearia 10% ethanol extract
[18] = Pseudomonas aeruginosa, read-out: MIC (single use), strain P7, EA=P. clypearia water extract
[19] = Pseudomonas aeruginosa, read-out: MIC (single use), strain P8, EA=P. clypearia 10% ethanol extract
[20] = Pseudomonas aeruginosa, read-out: MIC (single use), strain P8, EA=P. clypearia water extract
[21] = Pseudomonas aeruginosa, read-out: MIC (single use), strain P9, EA=P. clypearia 10% ethanol extract
[22] = Pseudomonas aeruginosa, read-out: MIC (single use), strain P9, EA=P. clypearia water extract
[23] = Pseudomonas aeruginosa, read-out: MIC (single use), strain P10, EA=P. clypearia 10% ethanol extract
[24] = Pseudomonas aeruginosa, read-out: MIC (single use), strain P10, EA=P. clypearia water extract
[25] = Pseudomonas aeruginosa, read-out: MIC (single use), strain P11, EA=P. clypearia 10% ethanol extract
[26] = Pseudomonas aeruginosa, read-out: MIC (single use), strain P11, EA=P. clypearia water extract
[27] = Pseudomonas aeruginosa, read-out: MIC (single use), strain P12, EA=P. clypearia 10% ethanol extract
[28] = Pseudomonas aeruginosa, read-out: MIC (single use), strain P12, EA=P. clypearia water extract
[29] = Pseudomonas aeruginosa, read-out: MIC (single use), strain P13, EA=P. clypearia 10% ethanol extract
[30] = Pseudomonas aeruginosa, read-out: MIC (single use), strain P13, EA=P. clypearia water extract
[31] = Pseudomonas aeruginosa, read-out: MIC (single use), strain P14, EA=P. clypearia 10% ethanol extract
[32] = Pseudomonas aeruginosa, read-out: MIC (single use), strain P14, EA=P. clypearia water extract
[33] = Pseudomonas aeruginosa, read-out: MIC (single use), strain P15, EA=P. clypearia 10% ethanol extract
[34] = Pseudomonas aeruginosa, read-out: MIC (single use), strain P15, EA=P. clypearia water extract
[35] = Pseudomonas aeruginosa, read-out: MIC (single use), strain P16, EA=P. clypearia 10% ethanol extract
[36] = Pseudomonas aeruginosa, read-out: MIC (single use), strain P16, EA=P. clypearia water extract
[37] = Pseudomonas aeruginosa, read-out: MIC (single use), strain P17, EA=P. clypearia 10% ethanol extract
[38] = Pseudomonas aeruginosa, read-out: MIC (single use), strain P17, EA=P. clypearia water extract
[39] = Pseudomonas aeruginosa, read-out: MIC (single use), strain P18, EA=P. clypearia 10% ethanol extract
[40] = Pseudomonas aeruginosa, read-out: MIC (single use), strain P18, EA=P. clypearia water extract
[41] = Pseudomonas aeruginosa, read-out: MIC (single use), strain P19, EA=P. clypearia 10% ethanol extract
[42] = Pseudomonas aeruginosa, read-out: MIC (single use), strain P19, EA=P. clypearia water extract
[43] = Pseudomonas aeruginosa, read-out: MIC (single use), strain P20, EA=P. clypearia 10% ethanol extract
[44] = Pseudomonas aeruginosa, read-out: MIC (single use), strain P20, EA=P. clypearia water extract
[45] = single use, 20 MDRPAs, section of the 10% ethanol extract
[46] = single use, 20 MDRPAs, section of the 60% ethanol extract
[47] = single use, 20 MDRPAs, section of the 95% ethanol extract

Procedure: Determination methods of a Minimal Inhibitory Concentration (MIC) and a Minimum Bactericidal Concentration (MBC) of a test product: the MIC and the MBC of the Pithecellobium clypearia Benth water or ethanol extract to the MDRAB are determined by a microdilution broth method. And it is operated by referring to the microdilution broth method recommended by National Committee for Clinical Laboratory Standards (NCCLS).
By determining the MIC and the MBC of the drug and making statistics of the data to obtain MIC50, MIC90, MBC50 and MBC90, the effect of the MDRA resistance of the drug is evaluated.
Test method: the MDRPA (serial No.: P1-P20) strains are tested and are evaluated with reference to the method in the first embodiment.

CC(C)(O/N=C(\C(=O)N[C@@H]1C(=O)N2C(C(=O)[O-])=C(C[n+]3ccccc3)CS[C@H]12)c1csc(N)n1)C(=O)O [CAZ, Ceftazidime]
MIC50 [1]: 32 µg/mL (≈ 58.5 µM)
MIC90 [1]: 256 µg/mL (≈ 468 µM)
MIC Range [1]: 2 to 512 µg/mL
MIC50 [2]: 32 µg/mL (≈ 58.5 µM)
MIC90 [2]: 256 µg/mL (≈ 468 µM)
MIC Range [2]: 2 to 512 µg/mL
MIC50 [3]: 32 µg/mL (≈ 58.5 µM)
MIC90 [3]: 256 µg/mL (≈ 468 µM)
MIC Range [3]: 2 to 512 µg/mL
MIC50 [4]: 32 µg/mL (≈ 58.5 µM)
MIC90 [4]: 256 µg/mL (≈ 468 µM)
MIC Range [4]: 2 to 512 µg/mL
MIC50 (Pseudomonas aeruginosa): 32 µg/mL (≈ 58.5 µM)
MIC90 (Pseudomonas aeruginosa): 256 µg/mL (≈ 468 µM)
MIC [5]: 32 µg/mL (≈ 58.5 µM)
MIC [6]: 32 µg/mL (≈ 58.5 µM)
MIC [7]: 64 µg/mL (≈ 117 µM)
MIC [8]: 64 µg/mL (≈ 117 µM)
MIC [9]: 4 µg/mL (≈ 7.32 µM)
MIC [10]: 4 µg/mL (≈ 7.32 µM)
MIC [11]: 256 µg/mL (≈ 468 µM)
MIC [12]: 256 µg/mL (≈ 468 µM)
MIC [13]: 64 µg/mL (≈ 117 µM)
MIC [14]: 64 µg/mL (≈ 117 µM)
MIC [15]: 512 µg/mL (≈ 937 µM)
MIC [16]: 512 µg/mL (≈ 937 µM)
MIC [17]: 64 µg/mL (≈ 117 µM)
MIC [18]: 64 µg/mL (≈ 117 µM)
MIC [19]: 256 µg/mL (≈ 468 µM)
MIC [20]: 256 µg/mL (≈ 468 µM)
MIC [21]: 8 µg/mL (≈ 14.6 µM)
MIC [22]: 8 µg/mL (≈ 14.6 µM)
MIC [23]: 4 µg/mL (≈ 7.32 µM)
MIC [24]: 4 µg/mL (≈ 7.32 µM)
MIC [25]: 2 µg/mL (≈ 3.66 µM)
MIC [26]: 2 µg/mL (≈ 3.66 µM)
MIC [27]: 64 µg/mL (≈ 117 µM)
MIC [28]: 64 µg/mL (≈ 117 µM)
MIC [29]: 16 µg/mL (≈ 29.3 µM)
MIC [30]: 16 µg/mL (≈ 29.3 µM)
MIC [31]: 16 µg/mL (≈ 29.3 µM)
MIC [32]: 16 µg/mL (≈ 29.3 µM)
MIC [33]: 256 µg/mL (≈ 468 µM)
MIC [34]: 256 µg/mL (≈ 468 µM)
MIC [35]: 32 µg/mL (≈ 58.5 µM)
MIC [36]: 32 µg/mL (≈ 58.5 µM)
MIC [37]: 32 µg/mL (≈ 58.5 µM)
MIC [38]: 32 µg/mL (≈ 58.5 µM)
MIC [39]: 64 µg/mL (≈ 117 µM)
MIC [40]: 64 µg/mL (≈ 117 µM)
MIC [41]: 4 µg/mL (≈ 7.32 µM)
MIC [42]: 4 µg/mL (≈ 7.32 µM)
MIC [43]: 256 µg/mL (≈ 468 µM)
MIC [44]: 256 µg/mL (≈ 468 µM)
MIC50 [45]: 32 µg/mL (≈ 58.5 µM)
MIC90 [45]: 256 µg/mL (≈ 468 µM)
MIC50 [46]: 32 µg/mL (≈ 58.5 µM)
MIC90 [46]: 256 µg/mL (≈ 468 µM)
MIC50 [47]: 32 µg/mL (≈ 58.5 µM)
MIC90 [47]: 256 µg/mL (≈ 468 µM)

C[C@H]1COc2c(N3CCN(C)CC3)c(F)cc3c(=O)c(C(=O)O)cn1c23 [LVX, Levofloxacin]
MIC50 [1]: 4 µg/mL (≈ 11.1 µM)
MIC90 [1]: 32 µg/mL (≈ 88.6 µM)
MIC Range [1]: 0.5 to 128 µg/mL
MIC50 [2]: 4 µg/mL (≈ 11.1 µM)
MIC90 [2]: 32 µg/mL (≈ 88.6 µM)
MIC Range [2]: 0.5 to 128 µg/mL
MIC50 [3]: 4 µg/mL (≈ 11.1 µM)
MIC90 [3]: 32 µg/mL (≈ 88.6 µM)
MIC Range [3]: 0.5 to 128 µg/mL
MIC50 [4]: 4 µg/mL (≈ 11.1 µM)
MIC90 [4]: 32 µg/mL (≈ 88.6 µM)
MIC Range [4]: 0.5 to 128 µg/mL
MIC50 (Pseudomonas aeruginosa): 4 µg/mL (≈ 11.1 µM)
MIC90 (Pseudomonas aeruginosa): 32 µg/mL (≈ 88.6 µM)
MIC [5]: 32 µg/mL (≈ 88.6 µM)
MIC [6]: 32 µg/mL (≈ 88.6 µM)
MIC [7]: 4 µg/mL (≈ 11.1 µM)
MIC [8]: 4 µg/mL (≈ 11.1 µM)
MIC [9]: 8 µg/mL (≈ 22.1 µM)
MIC [10]: 8 µg/mL (≈ 22.1 µM)
MIC [11]: 8 µg/mL (≈ 22.1 µM)
MIC [12]: 8 µg/mL (≈ 22.1 µM)
MIC [13]: 1 µg/mL (≈ 2.77 µM)
MIC [14]: 1 µg/mL (≈ 2.77 µM)
MIC [15]: 0.5 µg/mL (≈ 1.38 µM)
MIC [16]: 0.5 µg/mL (≈ 1.38 µM)
MIC [17]: 32 µg/mL (≈ 88.6 µM)
MIC [18]: 32 µg/mL (≈ 88.6 µM)
MIC [19]: 1 µg/mL (≈ 2.77 µM)
MIC [20]: 1 µg/mL (≈ 2.77 µM)
MIC [21]: 4 µg/mL (≈ 11.1 µM)
MIC [22]: 4 µg/mL (≈ 11.1 µM)
MIC [23]: 128 µg/mL (≈ 354 µM)
MIC [24]: 128 µg/mL (≈ 354 µM)
MIC [25]: 2 µg/mL (≈ 5.53 µM)
MIC [26]: 2 µg/mL (≈ 5.53 µM)
MIC [27]: 1 µg/mL (≈ 2.77 µM)
MIC [28]: 1 µg/mL (≈ 2.77 µM)
MIC [29]: 2 µg/mL (≈ 5.53 µM)
MIC [30]: 2 µg/mL (≈ 5.53 µM)
MIC [31]: 32 µg/mL (≈ 88.6 µM)
MIC [32]: 32 µg/mL (≈ 88.6 µM)
MIC [33]: 2 µg/mL (≈ 5.53 µM)
MIC [34]: 2 µg/mL (≈ 5.53 µM)
MIC [35]: 32 µg/mL (≈ 88.6 µM)
MIC [36]: 32 µg/mL (≈ 88.6 µM)
MIC [37]: 4 µg/mL (≈ 11.1 µM)
MIC [38]: 4 µg/mL (≈ 11.1 µM)
MIC [39]: 4 µg/mL (≈ 11.1 µM)
MIC [40]: 4 µg/mL (≈ 11.1 µM)
MIC [41]: 16 µg/mL (≈ 44.3 µM)
MIC [42]: 16 µg/mL (≈ 44.3 µM)
MIC [43]: 4 µg/mL (≈ 11.1 µM)
MIC [44]: 4 µg/mL (≈ 11.1 µM)
MIC50 [45]: 4 µg/mL (≈ 11.1 µM)
MIC90 [45]: 32 µg/mL (≈ 88.6 µM)
MIC50 [46]: 4 µg/mL (≈ 11.1 µM)
MIC90 [46]: 32 µg/mL (≈ 88.6 µM)
MIC50 [47]: 4 µg/mL (≈ 11.1 µM)
MIC90 [47]: 32 µg/mL (≈ 88.6 µM)
